Measured values published in patent publication US11426371B2, “Compositions and methods for treating cancer” (University of Virginia Patent Foundation, priority 2017, dated 2022).
Where two headings read alike, the source gives them in different places.

What was measured:
Experiment in all cases: Cell viability, panel of AML cell lines
Assay type in all cases: cell-based
[1] = tested on: OCI-AML4; details: Homo sapiens, OCI-AML4 cells
Procedure: (§1) Representative human AML cell lines (FIG. 2A; upper and lower panels) HL60/VCR and (FIG. 2B; upper and lower panels) OCI-AML2 were treated with SACLAC for 24 and 48 hours. Viability was assessed by MTS assay at 24 and 48 hours and apoptosis was assessed by flow cytometry at 48 hours. Upper panels represent % viability and lower panels indicate % apoptosis.
(§2) Two representative human-derived AML cell lines, HL60/VCR and OCI-AML2, are shown. These studies have been expanded to a large panel of additional human AML cell lines (n=30, Table 1).

[2] = tested on: NB4; details: Homo sapiens, NB-4, NB4 cells
Procedure: as §1, §2

[3] = tested on: HEL; details: Homo sapiens, HEL cells
Procedure: as §1, §2

[4] = tested on: KG1a; details: Homo sapiens, KG-1a, KG1a cells
Procedure: as §1, §2

[5] = tested on: HL60; details: Homo sapiens, HL-60, HL60 cells
Procedure: as §1, §2

[6] = tested on: Kasumi-6; details: Homo sapiens, Kasumi-6 cells
Procedure: as §1, §2

[7] = tested on: Kasumi-1; details: Homo sapiens, Kasumi-1 cells
Procedure: as §1, §2

[8] = tested on: U937; details: Homo sapiens, U-937, U937 cells
Procedure: as §1, §2

[9] = tested on: ML2; details: Homo sapiens, ML-2, ML2 cells
Procedure: as §1, §2

[10] = tested on: SKNO1; details: Homo sapiens, SKNO-1, SKNO1 cells
Procedure: as §1, §2

[11] = tested on: KGI; details: Homo sapiens, KGI cells
Procedure: as §1, §2

[12] = tested on: SET2; details: Homo sapiens, SET-2, SET2 cells
Procedure: as §1, §2

[13] = tested on: THP-1; details: Homo sapiens, THP-1 cells
Procedure: as §1, §2

[14] = tested on: SKM1; details: Homo sapiens, SKM-1, SKM1 cells
Procedure: as §1, §2

[15] = tested on: EOL-1; details: Homo sapiens, EOL1, EOL-1 cells
Procedure: as §1, §2

[16] = tested on: THF-1; details: Homo sapiens, THF-1 cells
Procedure: as §1, §2

[17] = tested on: HL60/ABTR; details: Homo sapiens, HL-60, HL60/ABTR cells (drug resistant variant)
Procedure: as §1, §2

[18] = tested on: ME-1; details: Homo sapiens, ME-1 cells
Procedure: as §1, §2

[19] = tested on: MM-6; details: Homo sapiens, MM-6 cells
Procedure: as §1, §2

[20] = tested on: MV4-11; details: Homo sapiens, MV4-11 cells
Procedure: as §1, §2

[21] = tested on: MOLM-13; details: Homo sapiens, MOLM-13 cells
Procedure: as §1, §2

[22] = tested on: OCI-AML3; details: Homo sapiens, OCI-AML-3, OCI-AML3 cells
Procedure: as §1, §2

[23] = tested on: HL60/VCR; details: Homo sapiens, HL60/VCR cells (drug resistant variant)
Procedure: as §1, §2

[24] = tested on: KGIa/ABTR; details: Homo sapiens, KGIa/ABTR cells
Procedure: as §1, §2

[25] = tested on: NOMO1; details: Homo sapiens, NOMO-1, NOMO1 cells
Procedure: as §1, §2

[26] = tested on: OCI-AML2; details: Homo sapiens, OCI-AML2 cells
Procedure: as §1, §2

[27] = tested on: KGI/ABTR; details: Homo sapiens, KGI/ABTR cells
Procedure: as §1, §2

CCCCCCCCCCCCCCC[C@@H](O)[C@H](CO)NC(=O)CCl [SACLAC, 2-chloro-N-((2S,3R)-1,3-dihydroxyoctadecan-2-yl)acetamide]
EC50 ([1]; 24 h, read-out: EC50 24 h): 1.4 µM
EC50 ([1]; 48 h, read-out: EC50 48 h): 0.7 µM
EC50 ([2]; 24 h, read-out: EC50 24 h): 0.2 µM
EC50 ([2]; 48 h, read-out: EC50 48 h): 0.6 µM
EC50 ([3]; 24 h, read-out: EC50 24 h): 1.2 µM
EC50 ([3]; 48 h, read-out: EC50 48 h): 1.6 µM
EC50 ([4]; 24 h, read-out: EC50 24 h): 5.6 µM
EC50 ([4]; 48 h, read-out: EC50 48 h): 3.5 µM
EC50 ([5]; 24 h, read-out: EC50 24 h): 1.8 µM
EC50 ([5]; 48 h, read-out: EC50 48 h): 1.2 µM
EC50 ([6]; 24 h, read-out: EC50 24 h): 2.1 µM
EC50 ([6]; 48 h, read-out: EC50 48 h): 2.7 µM
EC50 ([7]; 24 h, read-out: EC50 24 h): 0.8 µM
EC50 ([7]; 48 h, read-out: EC50 48 h): 0.8 µM
EC50 ([8]; 24 h, read-out: EC50 24 h): 1 µM
EC50 ([8]; 48 h, read-out: EC50 48 h): 1.7 µM
EC50 ([9]; 24 h, read-out: EC50 24 h): 1.7 µM
EC50 ([9]; 48 h, read-out: EC50 48 h): 1.8 µM
EC50 ([10]; 24 h, read-out: EC50 24 h): 0.9 µM
EC50 ([10]; 48 h, read-out: EC50 48 h): 0.8 µM
EC50 ([11]; 24 h, read-out: EC50 24 h): 3.2 µM
EC50 ([11]; 48 h, read-out: EC50 48 h): 2.7 µM
EC50 ([12]; 24 h, read-out: EC50 24 h): 2.6 µM
EC50 ([12]; 48 h, read-out: EC50 48 h): 3.3 µM
EC50 ([13]; 24 h, read-out: EC50 24 h): 2.6 µM
EC50 ([13]; 48 h, read-out: EC50 48 h): 2.2 µM
EC50 ([14]; 24 h, read-out: EC50 24 h): 1.6 µM
EC50 ([14]; 48 h, read-out: EC50 48 h): 0.7 µM
EC50 ([15]; 24 h, read-out: EC50 24 h): 1 µM
EC50 ([15]; 48 h, read-out: EC50 48 h): 1.1 µM
EC50 ([16]; 24 h, read-out: EC50 24 h): 6.7 µM
EC50 ([16]; 48 h, read-out: EC50 48 h): 4.8 µM
EC50 ([17]; 24 h, read-out: EC50 24 h): 2.5 µM
EC50 ([17]; 48 h, read-out: EC50 48 h): 3 µM
EC50 ([18]; 24 h, read-out: EC50 24 h): 2.1 µM
EC50 ([18]; 48 h, read-out: EC50 48 h): 1.2 µM
EC50 ([19]; 24 h, read-out: EC50 24 h): 7.8 µM
EC50 ([19]; 48 h, read-out: EC50 48 h): 6 µM
EC50 ([20]; 24 h, read-out: EC50 24 h): 2.3 µM
EC50 ([20]; 48 h, read-out: EC50 48 h): 1.3 µM
EC50 ([21]; 24 h, read-out: EC50 24 h): 1.1 µM
EC50 ([21]; 48 h, read-out: EC50 48 h): 1.4 µM
EC50 ([22]; 24 h, read-out: EC50 24 h): 0.6 µM
EC50 ([22]; 48 h, read-out: EC50 48 h): 0.4 µM
EC50 ([23]; 24 h, read-out: EC50 24 h): 3.3 µM
EC50 ([23]; 48 h, read-out: EC50 48 h): 2.4 µM
EC50 ([24]; 24 h, read-out: EC50 24 h): 2.9 µM
EC50 ([24]; 48 h, read-out: EC50 48 h): 2.7 µM
EC50 ([25]; 24 h, read-out: EC50 24 h): 1.1 µM
EC50 ([25]; 48 h, read-out: EC50 48 h): 0.8 µM
EC50 ([26]; 24 h, read-out: EC50 24 h): 1.8 µM
EC50 ([26]; 48 h, read-out: EC50 48 h): 1.1 µM
EC50 ([27]; 24 h, read-out: EC50 24 h): 5.4 µM
EC50 ([27]; 48 h, read-out: EC50 48 h): 4.1 µM
